Measurements published in ChEMBL document CHEMBL5523735 (J Med Chem, 2024).
pIC50: −log10 of the molar value. Values after ≈ are worked out from the molar mass of the structure shown. Active and inactive are the calls of the source. No cut-off for these calls is given here.

What was measured:
P2Y purinoceptor 14 = target: T1, P2Y purinoceptor 14 (Homo sapiens, UniProt Q15391); experiment: Antagonist activity at P2Y14R (unknown origin) stably expressed in HEK293 cells assessed as inhibition of forskolin-induced cAMP production by cAMP-Glo assay; type: functional, cell-based
T1 sequence (Q15391 whole entry): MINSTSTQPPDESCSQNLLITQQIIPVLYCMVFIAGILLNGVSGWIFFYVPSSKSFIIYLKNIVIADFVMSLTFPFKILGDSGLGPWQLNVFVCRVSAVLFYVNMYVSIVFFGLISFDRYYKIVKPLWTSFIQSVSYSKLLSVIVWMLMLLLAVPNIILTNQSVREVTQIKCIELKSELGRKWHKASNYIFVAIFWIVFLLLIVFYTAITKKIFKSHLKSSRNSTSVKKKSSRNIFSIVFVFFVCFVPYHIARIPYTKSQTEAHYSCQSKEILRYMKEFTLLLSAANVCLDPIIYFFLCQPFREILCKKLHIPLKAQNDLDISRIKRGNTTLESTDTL

[1] = Aqueous solubility of compound in SGF at pH 1.2 by spectrometry; type: ADME; settings: SGF, read-out: solubility
[2] = Aqueous solubility of compound in SIF at pH 6.8 by spectrometry; type: ADME; settings: simulated gi fluid
[3] = Aqueous solubility of compound in double distilled water at pH 7 by spectrometry; type: physicochemical; settings: buffer
[4] = Aqueous solubility of compound in PBS at pH 7.4 by spectrometry; type: physicochemical; settings: buffer
[5] = Metabolic stability in human liver microsomes measured for 90 mins; type: ADME, Microsome; settings: 1.5 h
[6] = Half life in Sprague-Dawley rat at 1 mg/kg, iv; type: ADME, organism-based; settings: in vivo
[7] = AUC (all) in Sprague-Dawley rat at 1 mg/kg, iv; type: ADME, organism-based; settings: in vivo
[8] = Cmax in Sprague-Dawley rat at 5 mg/kg, po; type: ADME, organism-based; settings: in vivo
[9] = Half life in Sprague-Dawley rat at 5 mg/kg, po; type: ADME, organism-based; settings: in vivo
[10] = Tmax in Sprague-Dawley rat at 5 mg/kg, po; type: ADME, organism-based; settings: in vivo
[11] = AUC (all) in Sprague-Dawley rat at 5 mg/kg, po; type: ADME, organism-based; settings: in vivo
[12] = Oral bioavailability in Sprague-Dawley rat at 5 mg/kg; type: ADME, organism-based; settings: in vivo
Mus musculus [13] = experiment: Anti-colitis activity in C57BL/6 mouse model of DSS-induced colitis assessed as increase in body weight at 100 uM, REC for 7 days administered daily; type: functional, organism-based; settings: time 7.0 day
Mus musculus [14] = experiment: Anti-colitis activity in C57BL/6 mouse model of DSS-induced colitis assessed as increase in colon length at 100 uM, REC for 7 days administered daily; type: functional, organism-based; settings: time 7.0 day
Mus musculus [15] = experiment: Anti-colitis activity in C57BL/6 mouse model of DSS-induced colitis assessed as decrease in spleen weight index at 100 uM, REC for 7 days administered daily; type: functional, organism-based; settings: time 7.0 day
Mus musculus [16] = experiment: Anti-colitis activity in C57BL/6 mouse model of DSS-induced colitis assessed as decrease in loose stools at 100 uM, REC for 7 days administered daily; type: functional, organism-based; settings: time 7.0 day
Mus musculus [17] = experiment: Anti-colitis activity in C57BL/6 mouse model of DSS-induced colitis assessed as decrease in rectal bleeding at 100 uM, REC for 7 days administered daily; type: functional, organism-based; settings: time 7.0 day
Mus musculus [18] = experiment: Anti-colitis activity in C57BL/6 mouse model of DSS-induced colitis assessed as decrease in endoscopic damage in colon at 100 uM, REC for 7 days administered daily; type: functional, organism-based; settings: time 7.0 day
Mus musculus [19] = experiment: Anti-colitis activity in C57BL/6 mouse model of DSS-induced colitis assessed as decrease in histological damage in colon at 100 uM, REC for 7 days administered daily by H and E staining based analysis; type: functional, organism-based; settings: time 7.0 day
Mus musculus [20] = experiment: Anti-colitis activity in C57BL/6 mouse model of DSS-induced colitis assessed as increase in intestinal epithelial cells in colon at 100 uM, REC for 7 days administered daily by H and E staining based analysis by immunofluorescence based analysis; type: functional, organism-based; settings: time 7.0 day
[21] = target: T2, P2Y purinoceptor 14 (Homo sapiens) (UniProt Q15391); settings: HEK293, filed as antagonist, dose 100.0 nM
T2 sequence (whole entry): T1 sequence (Q15391 whole entry)
Description: Antagonist activity at P2Y14R (unknown origin) stably expressed in HEK293 cells assessed as inhibition of forskolin-induced cAMP production at 100 nM by cAMP-Glo assay relative to control

Cc1ccc(C(=O)Nc2cc(C(=O)O)sc2Oc2ccc(F)cn2)cc1
pIC50 (P2Y purinoceptor 14): 9.40
solubility [1]: 0.051 µg/mL (≈ 0.137 µM)
solubility [2]: 0.175 µg/mL (≈ 0.47 µM)
solubility [3]: 0.088 µg/mL (≈ 0.236 µM)
solubility [4]: 1.995 µg/mL (≈ 5.36 µM)
Stability [5]: Stable
half-life [6]: 21 min
AUC [7]: 27924 ng·min/mL
Cmax [8]: 518 ng/mL
half-life [9]: 178 min
Tmax [10]: 15 min
AUC [11]: 90744 ng·min/mL
bioavailability [12]: 65%
Activity (Mus musculus [13]): Active
Activity (Mus musculus [14]): Active
Activity (Mus musculus [15]): Active
Activity (Mus musculus [16]): Active
Activity (Mus musculus [17]): Active
Activity (Mus musculus [18]): Active
Activity (Mus musculus [19]): Active
Activity (Mus musculus [20]): Active
inhibition [21]: 130%
